Laboratory results from US8901087B2, “Selective glycosidase inhibitors and uses thereof” (priority 2010, dated 2014).

Legend:
human O-GlcNAcase = human O-GlcNAcase (Homo sapiens (Human), UniProt O60502); assay: Fluorescence-based assay for determination of KI values for inhibition of O-GlcNAcase activity; assay type: biochemical; settings: purified human O-GlcNAcase, 4-Methylumbelliferyl N-acetyl-β-D-glucosaminide substrate, pH 7.0, Cheng-Prusoff; read-out: Fluorescence-based hOGA Ki
Method: Assay for Determination of KI Values for Inhibition of O-GlcNAcase Activity
Experimental Procedure for Kinetic Analyses
Enzymatic reactions are carried out in a reaction containing 50 mM NaH2PO4, 100 mM NaCl and 0.1% BSA (pH 7.0) using 2 mM 4-Methylumbelliferyl N-acetyl-β-D-glucosaminide dihydrate (Sigma M2133) dissolved in ddH2O, as a substrate. The amount of purified human O-GlcNAcase enzyme used in the reaction is 0.7 nM. Test compound of varying concentrations is added to the enzyme prior to initiation of the reaction. The reaction is performed at room temperature in a 96-well plate and is initiated with the addition of substrate. […] The slope of product production is determined for each concentration of compound tested and plotted, using standard curve fitting algorithms for sigmoidal dose response curves. The values for a four parameter logistic curve fit of the data are determined.

O-GlcNAcase = O-GlcNAcase (Rattus norvegicus, UniProt Q8VIJ5); assay: Cell-based ELISA for cellular activity of O-GlcNAcase inhibitors (O-GlcNAcylated protein level, RL-2 antibody); settings: increase in O-GlcNAcylated protein, cells treated 24 hours, RL-2 antibody ELISA
Text: Assay for Determination of Cellular Activity for Compounds that Inhibit O-GlcNAcase Activity
Inhibition of O-GlcNAcase, which removes O-GlcNAc from cellular proteins, results in an increase in the level of O-GlcNAcylated protein in cells. An increase in O-GlcNAcylated protein can be measured by an antibody, such as RL-2, that binds to O-GlcNAcylated protein. The amount of O-GlcNAcylated protein:RL2 antibody interaction can be measured by enzyme linked immunosorbant assay (ELISA) procedures.

Chain of human O-GlcNAcase (O60502 whole entry): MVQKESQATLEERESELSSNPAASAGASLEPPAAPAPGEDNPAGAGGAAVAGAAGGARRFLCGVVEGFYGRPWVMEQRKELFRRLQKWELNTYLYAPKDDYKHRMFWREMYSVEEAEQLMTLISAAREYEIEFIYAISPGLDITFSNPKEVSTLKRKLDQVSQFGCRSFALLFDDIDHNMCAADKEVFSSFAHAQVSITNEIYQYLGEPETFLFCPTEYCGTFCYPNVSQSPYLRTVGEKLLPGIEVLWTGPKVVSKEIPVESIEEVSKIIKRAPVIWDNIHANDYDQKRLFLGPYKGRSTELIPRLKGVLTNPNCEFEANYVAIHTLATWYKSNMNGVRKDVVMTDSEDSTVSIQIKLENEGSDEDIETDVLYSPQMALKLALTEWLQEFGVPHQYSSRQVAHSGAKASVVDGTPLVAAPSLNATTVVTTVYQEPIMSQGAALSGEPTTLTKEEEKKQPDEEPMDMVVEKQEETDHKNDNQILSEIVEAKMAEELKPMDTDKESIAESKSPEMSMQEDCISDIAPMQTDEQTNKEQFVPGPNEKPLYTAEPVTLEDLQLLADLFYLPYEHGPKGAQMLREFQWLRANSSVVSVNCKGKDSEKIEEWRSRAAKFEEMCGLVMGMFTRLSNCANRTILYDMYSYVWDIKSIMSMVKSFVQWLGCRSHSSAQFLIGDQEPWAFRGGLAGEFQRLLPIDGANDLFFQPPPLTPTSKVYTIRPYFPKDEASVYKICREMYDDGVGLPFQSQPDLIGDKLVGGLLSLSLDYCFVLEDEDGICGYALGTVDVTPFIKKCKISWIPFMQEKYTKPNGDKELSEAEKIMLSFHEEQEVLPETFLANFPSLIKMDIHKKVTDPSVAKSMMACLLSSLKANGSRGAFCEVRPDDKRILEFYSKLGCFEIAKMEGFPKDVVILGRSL
Chain of O-GlcNAcase (Q8VIJ5 whole entry, looked up): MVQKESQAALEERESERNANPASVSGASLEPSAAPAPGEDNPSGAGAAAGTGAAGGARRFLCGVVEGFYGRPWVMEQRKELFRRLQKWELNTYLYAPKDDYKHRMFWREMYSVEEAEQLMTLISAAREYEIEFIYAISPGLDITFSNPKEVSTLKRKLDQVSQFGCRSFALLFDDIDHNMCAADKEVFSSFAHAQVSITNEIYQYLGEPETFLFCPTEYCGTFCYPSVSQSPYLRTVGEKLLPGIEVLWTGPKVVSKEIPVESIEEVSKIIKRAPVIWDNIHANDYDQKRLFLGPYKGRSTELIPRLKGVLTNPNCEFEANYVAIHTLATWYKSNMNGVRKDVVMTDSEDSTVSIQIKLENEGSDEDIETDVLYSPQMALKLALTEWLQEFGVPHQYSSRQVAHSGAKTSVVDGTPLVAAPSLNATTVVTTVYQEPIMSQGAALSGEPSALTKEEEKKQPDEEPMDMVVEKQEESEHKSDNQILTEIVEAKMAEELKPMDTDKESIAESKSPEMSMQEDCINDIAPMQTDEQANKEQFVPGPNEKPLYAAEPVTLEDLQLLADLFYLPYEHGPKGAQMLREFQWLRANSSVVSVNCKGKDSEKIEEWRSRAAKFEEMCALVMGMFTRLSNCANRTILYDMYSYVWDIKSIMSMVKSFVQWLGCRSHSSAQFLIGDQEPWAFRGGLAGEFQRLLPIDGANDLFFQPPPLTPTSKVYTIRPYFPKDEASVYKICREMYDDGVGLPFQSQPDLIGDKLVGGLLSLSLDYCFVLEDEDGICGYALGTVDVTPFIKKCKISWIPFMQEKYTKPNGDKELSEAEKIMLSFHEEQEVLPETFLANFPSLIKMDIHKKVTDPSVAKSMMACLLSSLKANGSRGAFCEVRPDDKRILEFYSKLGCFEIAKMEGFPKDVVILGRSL

Row | Structure (SMILES) | Ki (human O-GlcNAcase) [nM] | EC50 (O-GlcNAcase) [nM]
1 | CN(C)C1=N[C@@H]2[C@@H](OCc3ccccc3)[C@H](COCc3ccccc3)[C@@H](C(O)C3SCCCS3)O[C@@H]2S1 (stereo partly shown) [Example 96] | 0.19 | 4.55
2 | CCNC1=N[C@@H]2[C@@H](O)[C@H](O)[C@@H]([C@@H](O)CC)O[C@@H]2S1 [Example 105, (3aR,5R,6S,7R,7aR)-2-(ethylamino)-5-((S)-1-hydroxypropyl)-5,6,7,7a-tetrahydro-3aH-pyrano[3,2-d]thiazole-6,7-diol] | 3.4 | 
3 | C[C@H](O)[C@H]1O[C@@H]2SC(NCCF)=N[C@@H]2[C@@H](O)[C@@H]1O [Example 141, (3aR,5R,6S,7R,7aR)-2-(2-Fluoroethylamino)-5-((S)-1-hydroxyethyl)-5,6,7,7a-tetrahydro-3aH-pyrano[3,2-d]thiazole-6,7-diol] | 0.82 | 
4 | CNC1=N[C@@H]2[C@@H](O)[C@H](O)[C@@H](C(C)(O)C(F)(F)F)O[C@@H]2S1 (stereo partly drawn) [Example 159, (3aR,5S,6S,7R,7aR)-2-(methylamino)-5-(1,1,1-trifluoro-2-hydroxypropan-2-yl)-5,6,7,7a-tetrahydro-3aH-pyrano[3,2-d]thiazole-6,7-diol] | 1.25 | 
5 | CNC1=N[C@@H]2[C@@H](O)[C@H](O)[C@@H]([C@@H](O)C(F)F)O[C@@H]2S1 [Example 191, (3aR,5S,6S,7R,7aR)-5-((R)-2,2-difluoro-1-hydroxyethyl)-2-(methylamino)-5,6,7,7a-tetrahydro-3aH-pyrano[3,2-d]thiazole-6,7-diol] | 0.14 | 
6 | O[C@H]1[C@H](O)[C@@H]([C@H](O)C(F)(F)F)O[C@@H]2SC(NCCF)=N[C@H]12 [Example 215, (3aR,5S,6S,7R,7aR)-2-(2-fluoroethylamino)-5-((S)-2,2,2-trifluoro-1-hydroxyethyl)-5,6,7,7a-tetrahydro-3aH-pyrano[3,2-d]thiazole-6,7-diol] | 1.8 | 
